One block for each molecule: values may come before it.
Assays:
[1] = test system: TrkB, AKT and ERK1/2 phosphorylation; test: Western blot of TrkB, AKT and ERK1/2 phosphorylation in TrkB-NFAT-bla CHO-K1 cells; format: cell-based; conditions: Figure 6E
Excerpt: Clarified cell lysates were resolved by SDS-PAGE, blotted onto nitrocellulose membranes and immunoprobed with the relevant primary and secondary antibody combinations. Anti-pTrkB Tyr^516 (4619), anti-pTrkB Tyr^706/707 (4621), anti-pTrkB, Tyr^816 (4168), anti-pERK1/2 […], anti-pAKT […], anti-TrkB (4603), anti-AKT (4685) and anti-ERK1/2 (4695) were sourced from Cell Signalling Technologies. Anti-GAPDH (IMG-5143A) was obtained from Imgenex; Goat anti-rabbit HRP conjugate (PO448) and Goat anti-mouse HRP conjugate (PO447) were sourced from Dako. Goat anti-mouse 800CW conjugate and Goat anti-rabbit 680 conjugate were sourced from LI-COR. Immunoreactive signals were detected using enhanced chemiluminescence reagent (Amersham) or using the Odyssey infra-red reader.

[2] = Solubility assay under CellSensor assay conditions (HPLC-UV); format: physicochemical; conditions: assay buffer, 0.5% DMSO; for Concentration @ t = 0: 0 hours; for Concentration @ t = 3: 3 hours; for Concentration @ t = 7: 7 hours
Protocol: To align with the functional data, all compound samples and dilutions were prepared using the CellSensor® assay conditions that include: assay buffer, plates, sample volumes and the same timeframe. The assay incubation time was 7 hours. 0, 3 and 7 hour samples were analysed, in triplicate, in the final assay buffer (DMEM/Glutamax + NEAA + 20 mM Hepes pH7.4 + 0.01% BSA, final DMSO concentration 0.5%) at nominal compound concentrations of 5, 20 and 50 µM. […] The 7 and 3 hour samples were prepared at times which allowed simultaneous filtering and sample analysis.

TrkB [3] = target: T1, TrkB (Homo sapiens, UniProt Q16620); set-up: host or cells: CHO-K1; conditions: cited from earlier work
striatal neurons = test: Primary neuronal mHTT-induced cell death assay (cortico-striatal co-culture); format: cell-based, rat
Excerpt: Cortical and striatal neurons were isolated from E18 rat embryos and separately transfected with a HTT exon1 fragment containing 73 CAG repeats (HTTN90Q73), together with a plasmid encoding for either a green AcGFP or a red AsRed fluorescent reporter before being plated on glial cells and treated with candidate pharmacological agents. After 5 days in culture, the number of fluorescent cells remaining was counted using an automated high content imaging and analysis platform (GE Healthcare InCell 2000) and any changes in neuronal survival quantified.

TrkB [4] = target: T1, TrkB; test: CellSensor TrkB-NFAT-bla CHO-K1 reporter gene assay (agonist, antagonist, PAM modes); format: cell-based; set-up: host or cells: CHO-K1
Protocol: The assays were configured using Invitrogen CHO-K1 cell lines stably expressing a β-lactamase gene under the control of a NFAT promoter region and the relevant Trk (A, B or C) receptor (except for the Trk null cell line). The activity of the β-lactamase enzyme was quantified via FRET with a fluorescent substrate containing a β-lactam ring, according to manufacturer’s provided protocol. All CellSensor® NFAT-bla CHO-K1 cell lines were seeded into black 384w assay plates in CellSensor® plating media (growth media without antibiotics) at 5,000 cells in a volume of 25 µL per well; cells were incubated at 37°C, 5% CO2 overnight. Then, the assay plating media was removed and replaced with 32 µL of assay media (plating media without serum) and returned to the incubator for 1 hour. […] Test compounds were added (4 µL) and cells were returned to the incubator for 1 hour; dependent on assay mode (agonist, antagonist or positive allosteric modulator) assay media alone (agonist mode), assay media containing EC80 neurotrophin (antagonist mode) or assay media containing EC20 neurotrophin (PAM mode) were then added to the cells (4 µL) for a further 4 hour incubation. ToxBLAzer detection reagent was reconstituted according to the manufacturer’s instructions and 8 µL/well added to the assay plates, these were then incubated at room temperature protected from light for 2 hours. Levels of β-lactamase activity were then quantified by measuring the fluorescent intensity ratio between ^EX400nm/^EM535nm and ^EX400nm/^EM460nm and cytotoxicity quantified by measuring the fluorescence intensity at ^EX590nm/^EM665nm using a Perkin Elmer EnVision.

TrkB [5] = target: T1, TrkB; test: DiscoveRx PathHunter U2OS TrkB enzyme fragment complementation (EFC) assay; format: cell-based; conditions: Figure 6C; read-out: BDNF potency (EC50), PathHunter EFC, agonist mode
Excerpt: The assay was configured using DiscoveRx PathHunter® U2OS cell line stably co-expressing two cDNAs: a ProLink™ (PK) tagged TrkB receptor and an Enzyme Acceptor (EA) tagged SH2 domain. Activation of the TrkB-PK receptor induces receptor dimerization and trans-phosphorylation, leading to SH2-EA recruitment, and thereby forcing complementation of the two β-galactosidase enzyme fragments (EA and PK). The resulting functional enzyme hydrolyzes substrate to generate a chemiluminescent signal. U2OS-TrkB PathHunter® cells were seeded into white 384w assay plates in plating media (1x MEM; 0.5% v/v horse serum) at 10,000 cells in a volume of 20 µL per well, cells were incubated at 37°C, 5% CO2 overnight to adhere to assay plates. Test compounds were added (5 µL) to the cells and the plates were returned to the incubator for 1 hour; dependent on assay mode (agonist, antagonist or positive allosteric modulator) assay media alone (agonist mode), assay media containing EC80 BDNF (antagonist mode) or assay media containing EC20 BDNF (PAM mode) were then added to the cells (5 µL) for a further 4 hour incubation at room temperature. PathHunter® detection reagent was then added (15 µL/well) and incubated at room temperature protected from light for 1 hour. Levels of β-galactosidase activity were then quantified by measuring the chemiluminescent signal obtained using a Perkin Elmer EnVision.

T1 sequence (Q16620 32-822): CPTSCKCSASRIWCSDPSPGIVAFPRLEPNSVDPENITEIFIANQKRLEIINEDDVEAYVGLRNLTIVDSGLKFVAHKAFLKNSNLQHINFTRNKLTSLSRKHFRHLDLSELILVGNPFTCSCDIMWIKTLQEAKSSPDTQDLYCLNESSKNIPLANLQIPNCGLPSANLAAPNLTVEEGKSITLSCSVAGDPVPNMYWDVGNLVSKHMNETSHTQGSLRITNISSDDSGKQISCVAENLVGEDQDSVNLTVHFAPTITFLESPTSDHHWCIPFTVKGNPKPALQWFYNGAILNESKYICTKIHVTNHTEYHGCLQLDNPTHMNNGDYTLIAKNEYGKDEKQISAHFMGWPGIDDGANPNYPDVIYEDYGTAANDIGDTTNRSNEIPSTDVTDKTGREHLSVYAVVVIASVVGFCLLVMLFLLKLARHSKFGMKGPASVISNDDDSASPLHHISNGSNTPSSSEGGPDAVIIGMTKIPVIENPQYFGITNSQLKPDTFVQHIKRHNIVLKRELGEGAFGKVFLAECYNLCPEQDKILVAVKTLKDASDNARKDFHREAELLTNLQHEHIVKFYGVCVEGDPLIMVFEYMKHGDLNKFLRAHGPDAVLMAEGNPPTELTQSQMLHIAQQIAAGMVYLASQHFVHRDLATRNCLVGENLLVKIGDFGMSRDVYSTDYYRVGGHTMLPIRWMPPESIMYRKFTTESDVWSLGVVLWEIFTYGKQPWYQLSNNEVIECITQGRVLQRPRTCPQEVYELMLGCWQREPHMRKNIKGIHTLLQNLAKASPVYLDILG

Molecule: COc1ccc(C(=O)c2cn(C(C)C)c3ncnc(N)c23)cc1NC(=O)Nc1ccc(Cl)cc1Cl [pan-Trk kinase inhibitor, 1-(5-(4-amino-7-isopropyl-7H-pyrrolo[2,3-d]pyrimidine-5-carbonyl)-2-methoxyphenyl)-3-(2,4-dichlorophenyl)urea]
Effect on antibody effects in striatal neurons (striatal neurons; data not shown): reversed | Effect on induction of NFAT activity by TrkB mAbs (TrkB [4]; co-incubation, pan-Trk inhibitor 100 nM): completely prevented

Molecule: COC(=O)[C@H]1[C@H]2C[C@@H]3c4[nH]c5cc(OC)ccc5c4CCN3C[C@H]2C[C@@H](OC(=O)c2cc(OC)c(OC)c(OC)c2)[C@@H]1OC [Reserpine]
Concentration @ t = 0 ([2]; nominal concentration 5 µM): 2.8 µM | Concentration @ t = 3 ([2]; nominal concentration 5 µM): 3.0 µM | Concentration @ t = 7 ([2]; nominal concentration 5 µM): 3.7 µM | Concentration @ t = 0 ([2]; nominal concentration 20 µM): 3.4 µM | Concentration @ t = 3 ([2]; nominal concentration 20 µM): 2.9 µM | Concentration @ t = 7 ([2]; nominal concentration 20 µM): 4.5 µM | Concentration @ t = 0 ([2]; nominal concentration 50 µM): 6.7 µM | Concentration @ t = 3 ([2]; nominal concentration 50 µM): 4.5 µM | Concentration @ t = 7 ([2]; nominal concentration 50 µM): 6.9 µM

Further lines, with some results ahead:

Concentration @ t = 0 ([2]; nominal concentration 5 µM): 7.6 µM | Concentration @ t = 3 ([2]; nominal concentration 5 µM): 8.8 µM | Concentration @ t = 7 ([2]; nominal concentration 5 µM): 10 µM | Concentration @ t = 0 ([2]; nominal concentration 20 µM): 13 µM | Concentration @ t = 3 ([2]; nominal concentration 20 µM): 14 µM | Concentration @ t = 7 ([2]; nominal concentration 20 µM): 17 µM | Concentration @ t = 0 ([2]; nominal concentration 50 µM): 38 µM | Concentration @ t = 3 ([2]; nominal concentration 50 µM): 44 µM | Concentration @ t = 7 ([2]; nominal concentration 50 µM): 49 µM
Molecule: CC(=O)NCCc1c[nH]c2ccc(O)cc12 [N-acetyl serotonin]
Basal phospho-ERK1/2 immunoreactive bands ([1]; LM22A-4 at low (10 µM) and high (83 µM), N-acetyl serotonin at high (83 µM) concentration): absence of immunoreactive bands | Published in vitro activity (in words) (TrkB [3]): Neuronal TrkB agonist | Published in vitro activity: Activity (TrkB [3]): 100 nM

EC50 (TrkB [5]): 0.823 nM | EC50 (TrkB [4]; Figure 4A, 5 hours, read-out: EC50, TrkB-NFAT-bla reporter, agonist mode): 0.145 nM | EC50 (TrkB [4]; Figure 6A, read-out: BDNF potency (EC50), CellSensor NFAT reporter, agonist mode): 0.323 nM
B1: Brain-derived neurotrophic factor (protein, UniProt P23560 19-247, looked up)
Neurotrophic factor BDNF …: APMKEANIRGQGGLAYPGVRTHGTLESVNGPKAGSRGLTSLADTFEHVIEELLDEDQKVRPNEENNKDADLYTSRVMLSSQVPLEPPLLFLLEEYKNYLDAANMSMRVRRHSDPARRGELSVCDSISEWVTAADKKTAVDMSGGTVTVLEKVPVSKGQLKQYFYETKCNPMGYTKEGCRGIDKRHWNSQCRTTQSYVRALTMDSKKRIGWRFIRIDTSCVCTLTIKRGR
notes: Neuroprotective secreted protein, cognate neurotrophin of TrkB
EC50 (striatal neurons; Figure 7A, normalized to 1 nM BDNF (100% Rescue) and vehicle (0%), read-out: EC50, % Rescue of striatal neurons from mHTT-induced cell death): 0.214 nM | TrkB, ERK1/2 and AKT phosphorylation (pathway activation) ([1]; 5 hours treatment): induced phosphorylation of TrkB, ERK1/2 and AKT
